Experiment [1] has as its system S. epidermidis biofilm. Nature of the experiment: Biofilm formation (crystal violet, 24-well plate). The format is cell-based, Staphylococcus epidermidis. As for the experimental part:
To study the effect of Triafluocyl on biofilm formation, S. epidermidis in early logarithmic phase (5×10^8 CFU/ml) was plated in a 24-well plate and let to adhere at the bottom of the well for 4 hr at 37° C. in static conditions. After 4 hr incubation, planktonic bacteria were removed and adherent bacteria were washed twice in TSB. Fresh TSB medium supplemented or not with 0.25% glucose was added to the well with 5 different concentrations of Triafluocyl and incubated for 24 hours. Wells were washed 3 times with NaCl 0.9% and incubated for 1 hr at RT with Crystal Violet 1% solution in dH2O to stain the biofilm. Wells were washed 3 times with dH2O to eliminate unbound crystal violet, then 400 μl Acetic Acid 10% was added and incubated at RT for 10 min. Absorbance was measured in triplicate at 570 nm, reflecting total biomass of the biofilm (live and dead bacteria). The concentration of Triafluocyl that inhibits at least 90% biofilm formation is called minimum biofilm inhibitory concentration (MBIC). Triafluocyl MBIC for S. epidermidis is 50 μg/ml both in the presence and in the absence of glucose.

Experiment [2] concerns E. faecalis ATCC 29212. Nature of the experiment: MIC determination (EUCAST, Mueller-Hinton broth). Type of experiment: cell-based. The settings on record: Enterococcus faecalis, ATCC29212. As for the experimental part: Further experiments were conducted using different strains of E. faecalis, as clinically relevant Gram-positive bacterial strains: E. faecalis vancomycin-resistant (VRE) ATCC BAA-2365, and E. faecalis ATCC 29212 in order to determine the Minimal Inhibitory Concentration (MIC) which is the minimal concentration required to prevent bacterial growth; the Minimal Bactericidal Concentration (MBC) which determines the lowest concentration at which an antimicrobial agent kill a particular microorganism and a Minimum Duration for killing 99.9% bacteria (MDK99.9) which is a tolerance metric according to the EUCAST.
MIC determination: A single colony selected from the different strains of E. faecalis is resuspended and cultured in the appropriate medium overnight (O/N) in aerobic conditions (37° C. with 220 rpm shaking), next day a 1:100 inoculum in Mueller-Hinton broth (MHB) was incubated in aerobic conditions for 3 hr (OD=0.08-0.1) and an inoculum of 1:300 dilution, corresponding to 3×10^5 CFU/ml, was incubated in presence or absence of different concentrations of Triafluocyl in 1% DMSO. After O/N growth the OD of each culture was measured at 600 nm in a spectrophotometer (OD600). The MIC represents the concentration at which there is no visible growth of bacteria, i.e. ΔOD at 600 nm equal to zero (blank is the medium alone). […]

Experiment [3] deals with E. faecalis (ATCC 29212) biofilm. Nature of the experiment: Biofilm formation on polystyrene (crystal violet). Type of experiment: cell-based, Enterococcus faecalis. The following applies: 20 hours. As for the experimental part: E. faecalis (ATCC 29212) was grown overnight in BHI medium, before being diluted 100 fold in fresh TSB, and incubated aerobically at 37° C. until bacteria culture reached an OD600 of 0.6 (corresponding to approximately 2-5×10^8 CFU/ml). Bacteria cultures were then diluted to 1×10^4 CFU/ml in fresh TSB. 800 μl aliquots of diluted bacteria suspensions were distributed in each well of a 24-well plate. Bacteria were allowed to adhere for 4 hours under static conditions at 37° C. After removing media, wells were rinsed 2 times with PBS to eliminate planktonic bacteria and re-filled with TSB supplemented with 0.5% glucose
Triafluocyl or DMSO as vehicle was then added at desired concentration and plates were incubated at 37° C. for 20 hours. After incubation, wells were washed and stained with 0.5% (w/v) crystal violet for 30 minutes, washed again and the dye was solubilized by adding 20% acetic acid (v/v in water) before reading absorbance at 595 nm.
E. faecalis biofilms were formed on polystyrene surface in the presence of increasing concentrations of Triafluocyl or DMSO as vehicle. In FIG. 2, Biofilm mass is presented as percentage of values obtained in the presence of DMSO (*P<0.05; **P<0.01; ***P<0.001, Triafluocyl versus DMSO, n=4).

Experiment [4] has as its system S. agalactiae (ATCC 12386). Nature of the experiment: MIC determination (EUCAST, Mueller-Hinton broth). Type of experiment: cell-based. The following applies: Streptococcus agalactiae, ATCC12386. The procedure:
Further experiments were conducted using S. agalactiae (ATCC 12386), as clinically relevant Gram-positive bacterial strains in order to determine the Minimal Inhibitory Concentration (MIC) which is the minimal concentration required to prevent bacterial growth; the Minimal Bactericidal Concentration (MBC) which determines the lowest concentration at which an antimicrobial agent kill a particular microorganism and a Minimum Duration for killing 99.9% bacteria (MDK99.9) which is a tolerance metric according to the EUCAST.
MIC determination: A single colony selected from the different strains of S. agalactiae (ATCC 12386) is resuspended and cultured in the appropriate medium overnight (O/N) in aerobic conditions (37° C. with 220 rpm shaking), next day a 1:100 inoculum in Mueller-Hinton broth (MHB) was incubated in aerobic conditions for 3 hr (OD=0.08-0.1) and an inoculum of 1:300 dilution, corresponding to 3×10^5 CFU/ml, was incubated in presence or absence of different concentrations of Triafluocyl in 1% DMSO. After O/N growth the OD of each culture was measured at 600 nm in a spectrophotometer (OD600). The MIC represents the concentration at which there is no visible growth of bacteria, i.e. ΔOD at 600 nm equal to zero (blank is the medium alone). MIC for Triafluocyl against S. agalactiae (ATCC 12386) was 40 μg/ml.

Values after ≈ are worked out from the molar mass of the structure shown.

Experimental findings from patent publication US10905691B2, “Use of triazolo(4,5-d)pyrimidine derivatives for prevention and treatment of bacterial infection” (Universite de Liege, priority 2016, dated 2021) are described below.

In general, inhibition refers to the percentage by which the read-out fell short of the control. The term MIC denotes the least concentration at which growth counts as inhibited. Turning to `CCCSc1nc(N[C@@H]2C[C@H]2c2ccc(F)c(F)c2)c2nnn([C@@H]3C[C@H](OCCO)[C@@H](O)[C@H]3O)c2n1` [Triafluocyl, (1S,2S,3R,5S)-3-[7-[(1R,2S)-2-(3,4-difluorophenyl)cyclopropylamino]-5-(propylthio)-3H-[1,2,3]-triazolo[4,5-d]pyrimidin-3-yl]-5-(2-hydroxyethoxy)-1,2-cyclopentanediol], the biofilm reduction in experiment [1] (20 μg/ml, presence of glucose (0.25%), 24 hours) amounted to 50%. In experiment [1] (Staphylococcus epidermidis, 5 μg/ml, absence of glucose, 24 hours), this molecule yielded an inhibition at 5 µg/mL of 50%. The “minimum biofilm inhibitory concentration (MBIC), at least 90% inhibition of biofilm formation” value in experiment [1] (absence of glucose) and in experiment [1] (presence of glucose) was 50 µg/mL throughout. Besides, the MIC in experiment [2] and in experiment [4] was 40 µg/mL (≈ 76.5 µM) each time. Also, the “E. faecalis biofilm formation” value in experiment [3] (40 μg/ml, polystyrene surface) is listed as “no biofilm could form”; in experiment [3] (starting concentration of 10 μg/ml, versus DMSO), “significantly reduces”.
